Measurements published in patent publication US8912186B2, “Allosteric protein kinase modulators” (Universitaet des Saarlandes, priority 2008, dated 2014).

How the values were obtained:
Format in all cases: biochemical
PKBβ = PKBβ (Homo sapiens, UniProt P31751); experiment: cell-free kinase activity assay; settings: DMSO control set 100%; for remaining activity at 50 µM / percent of catalytic activity of the Kinase in the presence of compound as compared to the solvent control (DMSO): PKBβ: 50 μM compound; for remaining activity at 50 µM / remaining activity at 200 µM: read-out: percent of catalytic activity of the Kinase in the presence of compound as compared to the solvent control (DMSO): PKBβ; for remaining activity at 200 µM: 200 μM compound
PRK2 = PRK2 (Homo sapiens, UniProt Q16513); experiment: cell-free kinase activity assay; settings: DMSO control set 100%
SGK = target: T1, SGK (Homo sapiens, UniProt O00141); experiment: cell-free kinase activity assay; settings: DMSO control set 100%; for remaining activity at 200 µM / remaining activity at 50 µM: read-out: percent of catalytic activity of the Kinase in the presence of compound as compared to the solvent control (DMSO): SGK
T1 sequence (O00141 1-431): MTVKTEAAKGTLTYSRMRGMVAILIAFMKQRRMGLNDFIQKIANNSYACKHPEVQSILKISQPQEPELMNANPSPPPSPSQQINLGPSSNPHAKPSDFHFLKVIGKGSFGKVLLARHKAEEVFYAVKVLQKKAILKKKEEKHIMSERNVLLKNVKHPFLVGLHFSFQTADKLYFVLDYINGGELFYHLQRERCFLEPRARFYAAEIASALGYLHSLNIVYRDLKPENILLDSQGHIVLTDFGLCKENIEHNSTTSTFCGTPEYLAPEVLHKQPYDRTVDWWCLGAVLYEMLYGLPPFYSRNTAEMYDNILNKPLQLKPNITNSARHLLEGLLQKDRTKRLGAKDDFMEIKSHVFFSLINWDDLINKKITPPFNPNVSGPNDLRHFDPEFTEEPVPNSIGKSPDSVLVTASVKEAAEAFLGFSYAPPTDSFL

PKCζ = target: T2, PKCζ (Homo sapiens, UniProt Q05513); experiment: cell-free kinase activity assay; settings: DMSO control set 100%; for remaining activity at 50 µM / remaining activity at 200 µM: read-out: percent of catalytic activity of the Kinase in the presence of compound as compared to the solvent control (DMSO): PKCζ; for remaining activity at 200 µM: 200 μM compound
T2 sequence (Q05513 1-592): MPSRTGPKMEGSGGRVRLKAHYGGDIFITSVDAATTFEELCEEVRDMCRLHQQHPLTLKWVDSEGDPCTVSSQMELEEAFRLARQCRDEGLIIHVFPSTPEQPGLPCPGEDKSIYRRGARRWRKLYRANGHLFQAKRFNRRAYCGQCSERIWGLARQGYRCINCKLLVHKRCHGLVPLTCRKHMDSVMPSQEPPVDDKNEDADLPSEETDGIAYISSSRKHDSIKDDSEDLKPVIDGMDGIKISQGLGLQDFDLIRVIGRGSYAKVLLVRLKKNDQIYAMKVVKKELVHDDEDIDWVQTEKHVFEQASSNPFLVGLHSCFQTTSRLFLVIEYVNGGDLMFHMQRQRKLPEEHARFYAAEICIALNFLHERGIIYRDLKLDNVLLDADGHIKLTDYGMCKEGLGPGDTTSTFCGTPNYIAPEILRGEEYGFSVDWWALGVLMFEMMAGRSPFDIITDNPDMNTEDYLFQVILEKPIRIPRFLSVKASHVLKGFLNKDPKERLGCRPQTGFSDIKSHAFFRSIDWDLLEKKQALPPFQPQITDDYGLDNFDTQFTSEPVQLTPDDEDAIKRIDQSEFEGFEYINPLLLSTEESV

S6K = S6K (Homo sapiens, UniProt P23443); experiment: cell-free kinase activity assay; settings: DMSO control set 100%; for remaining activity at 50 µM / remaining activity at 200 µM: read-out: percent of catalytic activity of the Kinase in the presence of compound as compared to the solvent control (DMSO): S6K
PDK1 = target: T3, PDK1 (Homo sapiens, UniProt O15530); experiment: cell-free kinase activity assay (ATPgamma[32P], T308tide substrate); settings: for activity at 50 µM: 50 μM compound; for activity at 50 µM / activity at 200 µM: DMSO control set 100%, read-out: percent of catalytic activity of the Kinase in the presence of compound as compared to the solvent control (DMSO): PDK1; for activity at 200 µM: 200 μM compound; for AC50: concentration of the compound required to activate half maximally; for AC50 / max. activation of PDK1 (fold): n.e.: no effect; for max. activation of PDK1 (fold): maximum activation achievable, compared to the basal activity of PDK1
T3 construct: GST
T3 sequence (O15530 1-556): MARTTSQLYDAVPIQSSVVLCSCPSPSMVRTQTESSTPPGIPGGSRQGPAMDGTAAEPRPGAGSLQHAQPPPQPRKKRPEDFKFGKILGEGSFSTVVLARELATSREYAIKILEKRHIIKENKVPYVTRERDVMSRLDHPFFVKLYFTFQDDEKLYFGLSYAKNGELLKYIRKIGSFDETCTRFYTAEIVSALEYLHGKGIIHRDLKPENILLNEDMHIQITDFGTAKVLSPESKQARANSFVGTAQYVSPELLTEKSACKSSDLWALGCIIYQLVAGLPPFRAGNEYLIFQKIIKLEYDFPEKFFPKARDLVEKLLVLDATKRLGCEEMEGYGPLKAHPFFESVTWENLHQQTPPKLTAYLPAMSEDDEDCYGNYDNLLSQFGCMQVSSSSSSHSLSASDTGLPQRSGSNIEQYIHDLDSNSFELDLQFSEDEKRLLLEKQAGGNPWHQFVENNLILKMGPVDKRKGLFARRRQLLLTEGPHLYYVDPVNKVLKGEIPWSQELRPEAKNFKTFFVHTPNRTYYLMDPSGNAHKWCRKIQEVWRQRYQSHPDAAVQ
From the text: Principle of the cell-free kinase activity assay: In general, the activity of the compounds as protein kinase inhibitors or activators may be assayed in vitro (cell free assay is meant here), in vivo or in a cell line. In vitro assays include assays that determine inhibition or activation of either the phosphorylation activity or ATPase activity of the activated protein kinase. Alternate in vitro assays quantitate the ability of the inhibitor to bind to the protein kinase. Compound binding may be measured by radiolabelling the compound prior to binding, isolating the inhibitor or activator/protein kinase complex and determining the amount of radiolabel bound. Alternatively, inhibitor or activator binding may be determined by running a competition experiment where new compounds are incubated with the protein kinase bound to known radioligands. Newer methods comprise fluorescence polarisation assays and surface plasmon resonance dependent techniques. […] The activity and modulation of activity is measured using a standard ATPgamma[^32P] assay as described earlier. […] The concentration of T308tide is 1 mM and the amount of PDK1 used is 200 ng. Reactions are carried out at room temperature. Reaction is started by addition of ATP-Mg mix and stopped with phosphoric acid after 30 min. Stopped reactions were spotted on to phosphocellulose paper (P81, Whatman) and washed. After drying, the radioactivity associated to the band was quantified.

PKA = PKA (Homo sapiens, UniProt P17612); experiment: cell-free kinase activity assay; settings: DMSO control set 100%

Sequence of S6K (P23443 whole entry): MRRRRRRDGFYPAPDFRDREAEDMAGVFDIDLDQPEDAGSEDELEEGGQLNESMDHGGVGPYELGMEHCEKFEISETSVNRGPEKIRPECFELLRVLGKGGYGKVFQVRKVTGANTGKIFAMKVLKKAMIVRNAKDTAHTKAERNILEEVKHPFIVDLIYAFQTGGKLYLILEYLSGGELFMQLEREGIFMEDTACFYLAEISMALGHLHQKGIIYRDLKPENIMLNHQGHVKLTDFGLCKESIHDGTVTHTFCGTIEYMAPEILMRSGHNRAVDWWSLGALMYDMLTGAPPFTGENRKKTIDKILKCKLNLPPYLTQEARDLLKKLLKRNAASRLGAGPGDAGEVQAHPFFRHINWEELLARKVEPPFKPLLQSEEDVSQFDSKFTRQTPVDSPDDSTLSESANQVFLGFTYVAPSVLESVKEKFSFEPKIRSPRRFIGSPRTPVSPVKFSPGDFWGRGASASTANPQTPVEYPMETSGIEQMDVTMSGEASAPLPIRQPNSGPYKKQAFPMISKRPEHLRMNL
Sequence of PRK2 (Q16513 whole entry, species assumed): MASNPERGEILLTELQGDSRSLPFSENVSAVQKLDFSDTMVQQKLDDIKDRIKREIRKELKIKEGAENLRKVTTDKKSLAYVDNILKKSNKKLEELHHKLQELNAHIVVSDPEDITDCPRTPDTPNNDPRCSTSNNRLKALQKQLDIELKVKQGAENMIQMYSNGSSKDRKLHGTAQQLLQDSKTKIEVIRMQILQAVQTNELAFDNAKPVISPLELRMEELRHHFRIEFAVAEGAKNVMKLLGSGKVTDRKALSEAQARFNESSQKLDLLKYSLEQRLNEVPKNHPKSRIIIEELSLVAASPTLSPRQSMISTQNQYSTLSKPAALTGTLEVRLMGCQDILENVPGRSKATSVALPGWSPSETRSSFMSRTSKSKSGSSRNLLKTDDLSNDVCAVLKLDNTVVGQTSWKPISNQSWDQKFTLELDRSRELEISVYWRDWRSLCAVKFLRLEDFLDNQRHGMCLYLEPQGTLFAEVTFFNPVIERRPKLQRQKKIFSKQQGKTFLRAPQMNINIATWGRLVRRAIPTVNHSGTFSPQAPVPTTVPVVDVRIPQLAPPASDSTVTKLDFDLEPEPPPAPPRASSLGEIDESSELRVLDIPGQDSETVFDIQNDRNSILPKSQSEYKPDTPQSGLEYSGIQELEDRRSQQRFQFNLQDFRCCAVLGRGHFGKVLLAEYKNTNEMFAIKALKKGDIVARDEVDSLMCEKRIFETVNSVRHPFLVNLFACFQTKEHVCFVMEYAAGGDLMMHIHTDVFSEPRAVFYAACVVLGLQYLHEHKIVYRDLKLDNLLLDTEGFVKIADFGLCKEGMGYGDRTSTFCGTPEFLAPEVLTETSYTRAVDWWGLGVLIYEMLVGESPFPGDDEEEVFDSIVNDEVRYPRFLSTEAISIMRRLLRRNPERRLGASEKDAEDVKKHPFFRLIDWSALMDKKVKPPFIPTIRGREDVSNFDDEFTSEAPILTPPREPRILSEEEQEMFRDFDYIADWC
Sequence of PKBβ (P31751 whole entry, species assumed): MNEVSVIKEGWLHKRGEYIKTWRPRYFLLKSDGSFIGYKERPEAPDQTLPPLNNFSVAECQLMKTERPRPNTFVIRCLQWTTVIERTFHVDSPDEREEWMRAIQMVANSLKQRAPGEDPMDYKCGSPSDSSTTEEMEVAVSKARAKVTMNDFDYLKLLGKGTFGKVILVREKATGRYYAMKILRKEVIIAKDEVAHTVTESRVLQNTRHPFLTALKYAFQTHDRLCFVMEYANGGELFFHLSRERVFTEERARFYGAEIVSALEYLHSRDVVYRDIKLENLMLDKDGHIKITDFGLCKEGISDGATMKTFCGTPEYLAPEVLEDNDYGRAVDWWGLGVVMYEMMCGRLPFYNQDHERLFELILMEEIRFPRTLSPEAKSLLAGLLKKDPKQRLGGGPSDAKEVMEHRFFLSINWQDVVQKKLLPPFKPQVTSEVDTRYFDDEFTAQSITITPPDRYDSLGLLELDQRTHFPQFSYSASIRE

In the case of `O=C(O)/C=C(/CCc1cccc(Cl)c1)c1ccccc1` [PS 87, (Z)-5-(3-Chlorophenyl)-3-phenylpent-2-enoic acid], the remaining activity at 50 µM (PKBβ) is reported as ~80%, the remaining activity at 200 µM (PKBβ) is reported as ~60% and the “percent of catalytic activity of the Kinase in the presence of compound as compared to the solvent control (DMSO): PRK2” value (shortened to “percent of catalytic activity … PRK2”) (PRK2; 50 μM compound) is reported as “no effect”. For the same molecule, the “percent of catalytic activity … PRK2” value (PRK2; 200 μM compound) was “no effect”, the “percent of catalytic activity of the Kinase in the presence of compound as compared to the solvent control (DMSO): SGK” value (“percent of catalytic activity … SGK” below) (SGK; 50 μM compound) was “no effect” and the remaining activity at 200 µM (SGK; 200 μM compound) was 60%. The remaining activity at 50 µM (PKCζ; 50 μM compound) was 45%, the remaining activity at 200 µM (PKCζ) was 3% and the remaining activity at 50 µM (S6K; 50 μM compound) was 90%. It also gave a remaining activity at 200 µM (S6K; 200 μM compound) of 65%, an activity at 50 µM (PDK1) of 150% and an activity at 200 µM (PDK1) of 150%. The AC50 (PDK1) was 11.6 µM and the “max. activation of PDK1 (fold)” value (PDK1) was 4.1 fold.
In the case of `O=C(O)/C=C1\c2ccccc2CC1Cc1ccc(Cl)cc1` (stereo not drawn) [PS 102], the remaining activity at 50 µM (PKBβ) is reported as 80 to 90%, the remaining activity at 200 µM (PKBβ) is reported as 60 to 70% and the “percent of catalytic activity … PRK2” value (PRK2; 50 μM compound) is reported as “no effect”. For the same molecule, the remaining activity at 200 µM (PRK2; 200 μM compound, read-out: percent of catalytic activity of the Kinase in the presence of compound as compared to the solvent control (DMSO): PRK2) was 110%, the remaining activity at 50 µM (SGK; 50 μM compound) was 112% and the remaining activity at 200 µM (SGK; 200 μM compound) was 50%. For the same molecule, the remaining activity at 50 µM (PKCζ; 50 μM compound) was 45%, the remaining activity at 200 µM (PKCζ) was 2% and the remaining activity at 50 µM (S6K; 50 μM compound) was 90%. For the same molecule, the remaining activity at 200 µM (S6K; 200 μM compound) was 55%, the activity at 200 µM (PDK1) was 180% and the AC50 (PDK1) was 30 µM. The “max. activation of PDK1 (fold)” value (PDK1) was 1.8 fold.
In the case of `O=C(O)CC(Cc1nc2cc(Cl)ccc2[nH]1)c1ccc(Cl)cc1` (stereo not drawn) [PS 114, 4-(5-Chloro-2-benzimidazolyl)-3-(4-chlorophenyl)butanoic acid], the remaining activity at 50 µM (PKBβ) is reported as 85%, the remaining activity at 200 µM (PKBβ) is reported as 80% and the “percent of catalytic activity … PRK2” value (PRK2; 50 μM compound) is reported as “no effect”. For the same molecule, the “percent of catalytic activity … PRK2” value (PRK2; 200 μM compound) was “no effect”, the “percent of catalytic activity of the Kinase in the presence of compound as compared to the solvent control (DMSO): PKA” value (“percent of catalytic activity … PKA” for short) (PKA; 50 μM compound) was “no effect” and the “percent of catalytic activity … PKA” value (PKA; 200 μM compound) was “no effect”. For the same molecule, the “percent of catalytic activity … SGK” value (SGK; 50 μM compound) was “no effect”, the “percent of catalytic activity … SGK” value (SGK; 200 μM compound) was “no effect” and the “percent of catalytic activity of the Kinase in the presence of compound as compared to the solvent control (DMSO): PKCζ” value (PKCζ; 50 μM compound) was “no effect”. For the same molecule, the remaining activity at 200 µM (PKCζ) was 30%, the “percent of catalytic activity of the Kinase in the presence of compound as compared to the solvent control (DMSO): S6K” value (from here on “percent of catalytic activity … S6K”) (S6K; 50 μM compound) was “no effect” and the remaining activity at 200 µM (S6K; 200 μM compound) was 75%. It also gave an activity at 50 µM (PDK1) of 400% and an activity at 200 µM (PDK1) of 500%.
With `O=C(O)/C=C(\CCc1ccc(Cl)cc1)c1ccccc1F` [PS 145, (E)-5-(4-Chlorophenyl)-3-(2-fluorophenyl)pent-2-enoic acid] the “percent of catalytic activity of the Kinase in the presence of compound as compared to the solvent control (DMSO): PKBβ” value (PKBβ) was “no effect”, the remaining activity at 200 µM (PKBβ) was ~70% and the “percent of catalytic activity … PKA” value (PKA; 50 μM compound) was “no effect”. The remaining activity at 200 µM (PKA; 200 μM compound, read-out: percent of catalytic activity of the Kinase in the presence of compound as compared to the solvent control (DMSO): PKA) was ~60%, the remaining activity at 50 µM (SGK; 50 μM compound) was ~80% and the remaining activity at 200 µM (SGK; 200 μM compound) was ~40%. The remaining activity at 50 µM (PKCζ; 50 μM compound) was 50%, the remaining activity at 200 µM (PKCζ) was 0% and the “percent of catalytic activity … S6K” value (S6K; 50 μM compound) was “no effect”. It also gave a remaining activity at 200 µM (S6K; 200 μM compound) of ~80% and an activity at 200 µM (PDK1) of ~120%.
`O=C(O)/C=C(/CCc1ccc(Br)cc1)c1ccccc1` [PS-T10, (Z)-5-(4-Bromophenyl)-3-phenylpent-2-enoic acid] was tested, and the “percent of catalytic activity of the Kinase in the presence of compound as compared to the solvent control (DMSO): PKBβ” value (PKBβ) was “no effect”, the remaining activity at 200 µM (PKBβ) was 70 to 80% and the “percent of catalytic activity … PRK2” value (PRK2; 50 μM compound) was “no effect”. The “percent of catalytic activity … PRK2” value (PRK2; 200 μM compound) was “no effect”, the “percent of catalytic activity … PKA” value (PKA; 50 μM compound) was “no effect” and the “percent of catalytic activity … PKA” value (PKA; 200 μM compound) was “no effect”. For the same molecule, the “percent of catalytic activity … SGK” value (SGK; 50 μM compound) was “no effect”, the “percent of catalytic activity … SGK” value (SGK; 200 μM compound) was “no effect” and the “percent of catalytic activity … S6K” value (S6K; 50 μM compound) was “no effect”. For the same molecule, the “percent of catalytic activity … S6K” value (S6K; 200 μM compound) was “no effect”, the activity at 50 µM (PDK1) was 400% and the activity at 200 µM (PDK1) was 450%. For the same molecule, the AC50 (PDK1) was 14.5 µM and the “max. activation of PDK1 (fold)” value (PDK1) was 4.1 fold.
